# Laboratory results from patent US20200390781A1, “CERTAIN (2S)-N-[(1S)-1-CYANO-2-PHENYLETHYL]-1,4-OXAZEPANE-2-CARBOXAMIDES FOR TREATING ANCA ASSOCIATED VASCULITIDES” (INSMED INCORPORATED, priority 2018, published 2020).
# Columns and labels:
# Type in all cases: cell-based, human
# [1] = system: surface proteinase 3 (PR3); assay: Surface PR3 expression by flow cytometry in neutrophils differentiated in the presence of INS1007; settings: for percentage of cells with no detectable surface PR3 expression: untreated approximately 30-40%, FIG. 2
# Experimental: (§1) To evaluate the pharmacological effects of INS1007 on surface PR3 expression, total PR3 expression, and NSP activity, stem cells were differentiated to neutrophils in the presence of INS1007 at increasing concentrations. Primary bone marrow (BM) or umbilical cord blood (UC) derived CD34^+ neutrophil progenitor cells (AllCells; Alameda, Calif.) were cultured for 7 days in STEMSPAN™ SFEM media (Stemcell Technologies; Tukwila, Wash.) supplemented with recombinant human Stem Cell Factor (Peprotech; Rocky Hill, N.J.) and recombinant human IL-3 (Peprotech). The cells were differentiated in culture for another 7 days in STEMSPAN® SFEM media (Stemcell Technologies) with recombinant human Granulocyte Colony Stimulating Factor (Peprotech), plus increasing concentrations of INS1007 (0-10 μM). At the end of the differentiation/treatment period, cells were harvested for analysis.
# (§2) Differentiated neutrophils were harvested for flow cytometry to quantify PR3 expression on the surface of neutrophils (FIGS. 1 and 2) and neutrophil total PR3 expression (FIG. 3).
# After harvest, the cells were resuspended in FACS staining buffer and Fc receptors were blocked for 30 min at 4° C. Cells were stained for 30 min with a mouse anti-PR3 monoclonal antibody (Abcam: Cambridge, Mass.) or a mouse monoclonal IgG isotype control (Abcam), followed by a Cy5-conjugated goat anti-mouse IgG secondary antibody (Abcam), and then analyzed using a GUAVA® EASYCYTEI^M 6HT flow cytometer (Millipore; Billerica, Mass.).
# total proteinase 3 (PR3) = assay: Total PR3 expression (surface and intracellular) by flow cytometry in differentiated neutrophils; settings: for total PR3 levels: FIG. 3
# Experimental: as §1, §2
# neutrophil elastase (NE) = assay: NE activity in lysates of neutrophils differentiated in the presence of INS1007; settings: highest concentration tested (10 μM); FIG. 5
# Experimental: (§3) To evaluate the pharmacological effects of INS1007 on surface PR3 expression, total PR3 expression, and NSP activity, stem cells were differentiated to neutrophils in the presence of INS1007 at increasing concentrations. Primary bone marrow (BM) or umbilical cord blood (UC) derived CD34^+ neutrophil progenitor cells (AllCells; Alameda, Calif.) were cultured for 7 days in STEMSPAN™ SFEM media (Stemcell Technologies; Tukwila, Wash.) supplemented with recombinant human Stem Cell Factor (Peprotech; Rocky Hill, N.J.) and recombinant human IL-3 (Peprotech). […]
# (§4) Neutrophils in a separate aliquot of harvested neutrophils were lysed with 10% (v/v) Triton X-100 in PBS and the lysates were added to 96-well plates. Peptide substrates for NE (N-Methoxysuccinyl-Ala-Ala-Pro-Val-7-amido-4-methylcoumarin; Sigma-Aldrich; St. Louis, Mo.), for PR3 (aminobenzoyl-Val-Ala-Asp-Cys-Ala-Asp-Gln-Lys(2,4-dinitrophenyl); GenScript; Piscataway, N.J.), and for CatG (N-Succinyl-Ala-Ala-Pro-Phe p-nitroanilide; Sigma) were added, and either fluorescence or absorbance was quantified using a SYNERGY™ microplate reader (BioTek; Winooski, Vt.). […] A portion of cell lysate samples was retained for protein quantification using a PIERCE™ BCA Protein Assay Kit (Thermo Fisher) according to the manufacturer's instructions. […]
# proteinase 3 (PR3) = assay: PR3 activity in lysates of neutrophils differentiated in the presence of INS1007; settings: highest concentration tested (10 μM); FIG. 6
# Experimental: as §3, §4
# cathepsin G (CatG) = assay: CatG activity in lysates of neutrophils differentiated in the presence of INS1007; settings: highest concentration tested (10 μM); data not shown
# Experimental: as §3, §4
# surface PR3 = assay: Fluorescence microscopy of surface PR3 on differentiated neutrophils; settings: differentiation in the presence of 10 μM INS1007; neutrophils derived from bone marrow or umbilical cord stem cells (both cell types)
# Experimental: as §1, with “At the end of the differentiation/treatment period, cells were harvested for analysis.” left out
# In a separate experiment, neutrophils were harvested, stained for 30 min. with either a mouse anti-PR3 monoclonal antibody (Abcam; Cambridge, Mass.) or a mouse monoclonal IgG isotype control (Abcam), followed by a Cy5-conjugated goat anti-mouse IgG secondary antibody (Abcam), fixed in 4% formaldehyde, and mounted to glass slides with PROLONG® Diamond Antifade Mountant with DAPI (Thermo Fisher; Waltham, Mass.). Samples were imaged with an Axio fluorescence microscope (Zeiss; Oberkochen, Germany) using constant settings while imaging samples from different treatment conditions.
structure (smiles),measurement,setting,value
"Cn1c(=O)oc2ccc(-c3ccc(C[C@@H](C#N)NC(=O)[C@@H]4CNCCCO4)cc3)cc21 [INS1007, (2S)—N-{(1S)-1-cyano-2-[4-(3-methyl-2-oxo-2,3-dihydro-1,3-benzoxazol-5-yl)phenyl]ethyl}-1,4-oxazepane-2-carboxamide]",percentage of cells with no detectable surface PR3 expression,[1]; neutrophils derived from bone marrow stem cells,~80%
same,"maximum reduction of surface PR3 expression (MFI, percent of untreated cells)","[1]; neutrophils derived from both bone marrow and umbilical cord blood stem cells, INS1007 0-10 μM, FIG. 1",greater than 60%
same,percentage of cells with no detectable surface PR3 expression,[1]; neutrophils derived from umbilical cord blood stem cells,more than 50%
same,total PR3 levels,"total proteinase 3 (PR3); bone marrow stem cell-derived neutrophils, not completely concentration-dependent",significantly reduced
same,percentage of cells with positive total PR3 expression,"total proteinase 3 (PR3); neutrophils derived from either umbilical cord blood or bone marrow stem cells, FIG. 4",did not reduce
same,total PR3 levels,total proteinase 3 (PR3); umbilical cord blood stem cell-derived neutrophils,did not reach statistically significant reduction
same,decrease of NE activity,neutrophil elastase (NE),> 90%
same,decrease of PR3 activity,proteinase 3 (PR3),> 90%
same,decrease of CatG activity,cathepsin G (CatG),greater than 75%
same,surface PR3 (fluorescence microscopy),surface PR3,markedly reduced
